Measurements from PubChem BioAssay AID1996.
In brackets after ≈: the same amount, converted by molar mass.

Details: buffer; pH 7.4; 200.0 µM
Compound COc1ccc(N2CCOCC2)c(NC(=O)c2ccco2)c1 has a solubility kinetic of 38.4 µg/mL (≈ 127 µM).
With Cc1nc(Nc2ccc(Cl)cc2)c2oc3ccccc3c2n1 the solubility kinetic was less than 0.2 µg/mL.
With CC(C)(C)C(=O)c1cn(Cc2ccccc2)c2ccccc12 the solubility kinetic was 1.5 µg/mL (≈ 5.15 µM).
COc1ccccc1Nc1nc(-c2cccnc2)cs1 showed a solubility kinetic of 1 µg/mL (≈ 3.53 µM).
COc1ccccc1C(=O)NCCC(=O)Nc1ncccc1O gave a solubility kinetic greater than 47.3 µg/mL.
Compound COc1ccc(OC)c(Nc2cc(C)c3ccccc3n2)c1 has a solubility kinetic of 1.4 µg/mL (≈ 4.76 µM).
For O=C(CNC(=O)c1ccc(Br)o1)NCC1CCCO1 (configuration not stated), the solubility kinetic was greater than 49.7 µg/mL.
For CC(Nc1c[nH]c(=O)[nH]c1=O)c1ccccc1 (configuration not stated), the solubility kinetic was 22.3 µg/mL (≈ 96.4 µM).
In the case of O=C1N[C@@H](Cc2ccccc2)C(=O)N2CCC[C@@H]12, the solubility kinetic is reported as greater than 36.6 µg/mL.
With O=C(CC1Sc2ccccc2NC1=O)NCc1ccc(Cl)cc1 (configuration not stated) the solubility kinetic was less than 0.4 µg/mL.
Compound CC1(c2ccccc2)NC(=O)N(CC(=O)N2CCN(S(=O)(=O)c3c(F)cccc3F)CC2)C1=O (configuration not stated) has a solubility kinetic of 25 µg/mL (≈ 50.8 µM).
With O=C1CC(c2ccccc2F)c2c(c3ccccc3[nH]c2=O)O1 (configuration not stated) the solubility kinetic was 11.4 µg/mL (≈ 36.9 µM).
Work on COc1ccc(CNC(=S)Nc2ccccc2)cc1Cl yielded a solubility kinetic of 31.7 µg/mL (≈ 103 µM).
For CC(=O)N1CC(=O)Nc2ccc(C)cc2C1c1ccccc1 (configuration not stated), the solubility kinetic was greater than 44.2 µg/mL.
COc1ccc(Nc2nc(N)c([N+](=O)[O-])c(NCc3ccccc3)n2)cc1 showed a solubility kinetic of less than 0.1 µg/mL.
In the case of CC1(CCc2ccccc2)NC(=O)N(CC(=O)Nc2ccc(OC(F)F)cc2)C1=O (configuration not stated), the solubility kinetic is reported as 11.4 µg/mL (≈ 27.3 µM).
For Cc1cc(C(=O)CSc2nc(N)cc(N)n2)c(C)n1CC1CCCO1 (configuration not stated), the solubility kinetic was greater than 54.2 µg/mL.
Work on Clc1ccc(C2CSc3c4ncnc-4ncn32)cc1 (configuration not stated) yielded a solubility kinetic of 33.9 µg/mL (≈ 117 µM).
Compound Cc1cc(=O)oc(C)c1C(=O)Nc1cccnc1Cl has a solubility kinetic greater than 41.8 µg/mL.
With Cc1ccc(CCSc2ccc(F)cc2)cn1.O=C(O)C(=O)O the solubility kinetic was 25.2 µg/mL.
Compound O=[N+]([O-])c1ccc(CSC2=NCCS2)cc1 has a solubility kinetic of 16.1 µg/mL (≈ 63.3 µM).
CC1c2ccsc2CCN1C(=O)NC(=O)c1ccc(Cl)cc1 (configuration not stated) showed a solubility kinetic of 1.8 µg/mL (≈ 5.38 µM).
In the case of CN1CCCCCC1=Nc1ccc([N+](=O)[O-])cc1.Cl, the solubility kinetic is reported as greater than 42.6 µg/mL.
In the case of Cn1cc(S(=O)(=O)c2ccccc2)n(C)c1=O, the solubility kinetic is reported as 31 µg/mL (≈ 123 µM).
CC(CCc1ccccc1)NC(=O)c1ccccc1C(=O)O (configuration not stated) gave a solubility kinetic greater than 44.6 µg/mL.
With Cc1cc(Cl)nc(-c2ccccc2)n1 the solubility kinetic was 0.3 µg/mL (≈ 1.47 µM).
Work on Cc1ncc([N+](=O)[O-])n1CC(=O)Nc1cccc(C(F)(F)F)c1 yielded a solubility kinetic of 6 µg/mL (≈ 18.3 µM).
In the case of CNC(=S)NC(CC(=O)OC)c1ccc2c(c1)OCO2 (configuration not stated), the solubility kinetic is reported as 41.8 µg/mL (≈ 141 µM).
Work on Nc1ncc(CCN2CCOCC2)c(-c2ccc(F)cc2)n1 yielded a solubility kinetic greater than 45.4 µg/mL.
Compound Cc1cccc(C)c1NC(=O)COC(=O)c1ccccc1O has a solubility kinetic of 3 µg/mL (≈ 10 µM).
Compound O=C(Cc1ccc(Br)cc1)N1CCCC1 has a solubility kinetic of 37.6 µg/mL (≈ 140 µM).
O=C(CN1C(=O)NC(c2ccccc2)(c2ccccc2)C1=O)NCCNCCO showed a solubility kinetic greater than 59.5 µg/mL.
Work on CCCN1CCN(c2ccc(S(N)(=O)=O)cc2[N+](=O)[O-])CC1 yielded a solubility kinetic of 32.9 µg/mL (≈ 100 µM).
Work on CC(C)N=C(NS(=O)(=O)c1cccs1)c1ccccc1 yielded a solubility kinetic greater than 46.3 µg/mL.
With Cc1ccc(Cn2c(=S)[nH]c3ccccc3c2=O)cc1 the solubility kinetic was less than 0.3 µg/mL.
Compound Cc1cc(C)nc(SCCC(=O)Nc2ccc(F)cc2)n1 has a solubility kinetic greater than 45.8 µg/mL.
Compound Cc1cnc(=O)[nH]c1SCc1ccccc1F has a solubility kinetic greater than 37.5 µg/mL.
Compound O=C(NCCc1cccs1)c1cccs1 has a solubility kinetic greater than 35.6 µg/mL.
Compound O=C(O)C1CC=CCC1C(=O)NCCCN1CCCC1=O (configuration not stated) has a solubility kinetic greater than 44.2 µg/mL.
CC(=O)N(C)c1ccc(N=Cc2c(O)ccc3ccccc23)cc1 gave a solubility kinetic greater than 47.8 µg/mL.
In the case of O=C(COc1ncnc2sccc12)NC1CCCCC1, the solubility kinetic is reported as greater than 43.7 µg/mL.
Work on COc1ccc(C(=O)COC(=O)c2cnc(C)cn2)c(OC)c1 yielded a solubility kinetic greater than 47.4 µg/mL.
COc1cc(NC(N)=S)c(OC)cc1Cl gave a solubility kinetic greater than 37 µg/mL.
Work on Cc1ccc(Nc2nc(NCCO)c3ccccc3n2)cc1C.Cl yielded a solubility kinetic of 30.9 µg/mL.
Work on CCO/N=C/C1=C(O)C(C(=O)OC)C(C)(C)CC1=O (configuration not stated) yielded a solubility kinetic greater than 40.4 µg/mL.
Work on COc1ccc(NC(=O)CC(NC(C)c2ccccc2)C(=O)O)cc1 (configuration not stated) yielded a solubility kinetic of 44.2 µg/mL (≈ 129 µM).
With O=C(Nc1cccc(Cl)c1)OCCOc1ccccc1 the solubility kinetic was less than 0.6 µg/mL.
In the case of Cc1cnc(C(=O)OCC(=O)c2c[nH]c3ccccc23)cn1, the solubility kinetic is reported as 13.7 µg/mL (≈ 46.4 µM).
Work on Cc1cc(NS(=O)(=O)c2ccc(NC(=O)c3ccccc3F)cc2)no1 yielded a solubility kinetic greater than 56.3 µg/mL.
Work on O=C(COC(=O)c1ccc([N+](=O)[O-])o1)NCCCc1ccccc1 yielded a solubility kinetic greater than 49.8 µg/mL.
COc1ccc(C(NC(=O)CC(C)C)c2c(O)ccc3ccccc23)cc1 (configuration not stated) gave a solubility kinetic of less than 0.8 µg/mL.
Compound Br.Clc1ccccc1CNCC1CCCO1 (configuration not stated) has a solubility kinetic of 41 µg/mL.
Work on COc1ccccc1C(=O)Nc1cccc2cccnc12 yielded a solubility kinetic of less than 0.3 µg/mL.
With COc1ccccc1OCC(=O)N1CCCCCCC1 the solubility kinetic was greater than 41.6 µg/mL.
CCCCC(=O)NC1(C(F)(F)F)NC(=O)N(C)C1=O (configuration not stated) showed a solubility kinetic greater than 42.2 µg/mL.
Cc1noc(C)c1C(=O)NCC1COc2ccccc2O1 (configuration not stated) showed a solubility kinetic greater than 43.2 µg/mL.
With O=C1NC2=C(C(=O)CCC2)C(c2cccc([N+](=O)[O-])c2)N1 (configuration not stated) the solubility kinetic was greater than 43.1 µg/mL.
In the case of CCS(=O)(=O)N1CCC(C(=O)NCc2ccc3c(c2)OCO3)CC1, the solubility kinetic is reported as greater than 53.2 µg/mL.
Work on O=C(C1CC2C=CC1C2)N1CCN(c2ccccc2)CC1 (configuration not stated) yielded a solubility kinetic greater than 42.4 µg/mL.
Compound Cc1cccc(NC(=O)CN2CCCCCC2)c1 has a solubility kinetic of 25.8 µg/mL (≈ 105 µM).
COc1ccc(CCNC(=O)COC(=O)/C=C/c2ccc3c(c2)OCO3)cc1OC showed a solubility kinetic of 12.7 µg/mL (≈ 30.7 µM).
With CC1CCc2c(C(=O)NCc3ccco3)csc2C1 (configuration not stated) the solubility kinetic was 34.9 µg/mL (≈ 127 µM).
In the case of CC12CCC(=O)N1C(C(=O)N1CCN(c3ccc([N+](=O)[O-])cc3)CC1)CS2 (configuration not stated), the solubility kinetic is reported as 30.7 µg/mL (≈ 78.6 µM).
COc1cccc(NC(=O)c2sc(Cl)nc2C)c1 gave a solubility kinetic greater than 42.4 µg/mL.
With CC(CC12CC3CC(CC(C3)C1)C2)NCc1ccccc1O.Cl (configuration not stated) the solubility kinetic was 38.5 µg/mL.
For Cc1ccc(N2C(=O)CC(NCC3CCCO3)C2=O)cc1 (configuration not stated), the solubility kinetic was greater than 43.3 µg/mL.
Fc1ccc(-n2c(=S)[nH]c3cccnc32)cc1 gave a solubility kinetic greater than 36.8 µg/mL.
O=C(Cc1ccccc1[N+](=O)[O-])OCN1C(=O)c2ccccc2C1=O showed a solubility kinetic of 13.7 µg/mL (≈ 40.3 µM).
Work on Cc1ccnc(NC2(C(F)(F)F)N=C3SCCN3C2=O)c1 (configuration not stated) yielded a solubility kinetic greater than 47.4 µg/mL.
CCOC(=O)C1CCN(c2c(NCCC(C)C)c(=O)c2=O)CC1 gave a solubility kinetic greater than 48.4 µg/mL.
Cc1nc(Cl)c2c(n1)NC(=O)CO2 gave a solubility kinetic greater than 29.9 µg/mL.
Work on O=C1NC(=S)NC(=O)C1=Cc1ccc(Br)s1 yielded a solubility kinetic of 44.3 µg/mL (≈ 140 µM).
Compound CSc1nc(N2CCOCC2)c2c(c1C#N)CC(C(C)C)OC2 (configuration not stated) has a solubility kinetic of less than 0.2 µg/mL.
Cc1[nH]c2ccc(C(=O)NCCCN3CCOCC3)cc2c1C showed a solubility kinetic greater than 47.3 µg/mL.
Work on COCCNC(=O)C(=O)Nc1cc2c3c(c1)CC(=O)N3CCC2 yielded a solubility kinetic of 42.3 µg/mL (≈ 133 µM).
With CC(=O)C1=C(c2ccccc2)NC(=O)NC1c1ccccc1 (configuration not stated) the solubility kinetic was greater than 43.9 µg/mL.
With CN(C)c1nc(NCc2ccccc2)nc(SCC(N)=O)n1 the solubility kinetic was 43.7 µg/mL (≈ 137 µM).
O=C(NC(=S)Nc1ccc2nc[nH]c2c1)c1ccccc1 showed a solubility kinetic of 35 µg/mL (≈ 118 µM).
Work on COCc1cc(=O)[nH]c(-c2ccc(C(F)(F)F)cc2)n1 yielded a solubility kinetic greater than 42.6 µg/mL.
For CC(OC(=O)CN1C(=O)c2ccccc2C1=O)C(=O)NC1CCCCC1 (configuration not stated), the solubility kinetic was greater than 53.8 µg/mL.
In the case of O=C(NCC(O)COc1ccc([N+](=O)[O-])cc1)c1ccccc1 (configuration not stated), the solubility kinetic is reported as 24.8 µg/mL (≈ 78.4 µM).
In the case of Cc1cc(NC(=O)CSc2nc3c(cc2C#N)CCC3)no1, the solubility kinetic is reported as 1.4 µg/mL (≈ 4.45 µM).
Work on O=C(NCCc1ccccc1)c1ccc(Cl)cc1[N+](=O)[O-] yielded a solubility kinetic greater than 45.7 µg/mL.
In the case of COC(OC)c1ccnc(SCc2ccccc2Cl)n1, the solubility kinetic is reported as 17.6 µg/mL (≈ 56.6 µM).
COc1ccc(C(=O)COc2ccccc2C(N)=O)cc1 showed a solubility kinetic of 31.6 µg/mL (≈ 111 µM).
In the case of Cc1ccc(S(=O)(=O)NC2CCCCCC2)cc1C(N)=O, the solubility kinetic is reported as greater than 46.6 µg/mL.
In the case of O=C(Nc1ccccc1)Nc1ccccc1C(=O)NCC1CC1, the solubility kinetic is reported as 5.1 µg/mL (≈ 16.5 µM).
